“And” between values parts separate entries of the source, which are not always exact repeats. Equal entries are not always repeated. Structures can show the parent of a compound that is named as a salt.
Experiments:
Salmonella typhi [1] = assay: Agar diffusion, inhibition zone (ZOI) and activity index; assay type: cell-based; conditions: for ZOI: 10^−3 M in DMF, 5 mm holes, 20 h at 37°C
Salmonella typhi [2] = assay: MIC / MBC determination; assay type: cell-based
[3] = test system: lipoprotein lipase (L. lipase); assay: Serum L. lipase activity in high-fat diet mice (fluorometric kit); assay type: in vivo; conditions: HFD C57BL/6 mice; for L. lipase (serum enzyme activity): 4 mg kg^−1 body weight in DMF, 3 months, mean ± SD; for mean L. lipase activity: rounded, 4 mg kg^−1 body weight
Experimental: (§1) This study employed 8‐week‐old male C57BL/6 mice of matched weight (around 20–25 g) from an inbred “genetically identical” strain. The mice were purchased from the National Research Center's Animal House. Then, they were subdivided into five groups, each group containing eight mice; four groups were treated with CETZ.2HCl (antihistamine drug) and its metal complexes, whereas one group was left untreated and classified as a control group. Animals were housed in modular plastic veterinary cages at air‐conditioned room, under pathogen‐free conditions. Mice were fed HFD, which consisted of carbs 42.0%, fat 23.0%, protein 17.0%, fiber 3.0%, minerals 5.0%, and moisture 10.0% for 3 months, together with administration of either CETZ.2HCl or its metal complexes (4 mg kg ^−1 body weight) in DMF [37]. Experiments were performed in accordance with the regulations of the Animal Care and Use Committee of the College of Veterinary Medicine, Mansoura University (MU‐ACUC), Egypt; MU‐ACUC (PHARM.R.24.02.30), complied with “Guide for the Care and Use of Laboratory Animals” (National Research Council publication 8th ed., USA, 2011).
(§2) Specimens of blood were gathered from the retro‐orbital sinus, under halothane (1.5 percent v/v halothane in oxygen) anesthesia via inhalation. The collected blood was allowed to clot, by centrifugation at 1600 rpm for 20 min, to obtain serum. Isolated sera were maintained at −80°C until tests of liver function in addition to lipid profiles were performed. For estimation of L. lipase activity, fluorometric L. lipase activity assay kit was utilized following the manufacturer's protocol (Cat. No. STA‐610, Cell BIOLABS INC., San Diego, USA). Serum T. chol. LDL, HDL, TG, ALT (alanine aminotransferase), AST (aspartate aminotransferase), and ALP (alkaline phosphatase) were examined with Roche kits using COBAS Integra 400 and COBAS Integra‐400 plus (Roche Diagnostics Limited, Switzerland).

[4] = Serum lipid profile in high-fat diet mice; assay type: in vivo; conditions: HFD C57BL/6 mice, 4 mg kg^−1 body weight, 3 months, mean ± SD
Experimental: as §1, §2

[5] = Serum liver function enzymes in high-fat diet mice; assay type: in vivo; conditions: HFD C57BL/6 mice, 4 mg kg^−1 body weight, 3 months, mean ± SD
Experimental: as §1, §2

Aspergillus niger [6] = assay: MIC determination
Aspergillus terreus [7] = assay: MIC determination
Staphylococcus aureus [8] = assay: MIC / MBC determination
Bacillus subtilis [9] = assay: MIC / MBC determination
Escherichia coli [10] = assay: MIC / MBC determination
Staphylococcus aureus [11] = assay: Agar diffusion, inhibition zone (ZOI) and activity index; conditions: for ZOI / AI: Staphylococcus aureus; for ZOI: 10^−3 M in DMF, 5 mm holes, 20 h at 37°C; for AI: ZOI of compound / ZOI of standard (ampicillin) × 100
Bacillus subtilis [12] = assay: as above; conditions: for ZOI: 10^−3 M in DMF, 5 mm holes, 20 h at 37°C
Escherichia coli [13] = assay: as above; conditions: for ZOI: 10^−3 M in DMF, 5 mm holes, 20 h at 37°C
Aspergillus niger [14] = assay: as above; conditions: for ZOI: 10^−3 M in DMF, 5 mm holes, 7 days at 30°C
Aspergillus terreus [15] = assay: as above; conditions: for ZOI: 10^−3 M in DMF, 5 mm holes, 7 days at 30°C; for AI: ZOI of compound / ZOI of standard (colitrimazole) × 100
[16] = Salmonella typhi, ZOI of compound / ZOI of standard (gentamicin) × 100
[17] = Bacillus subtilis, ZOI of compound / ZOI of standard (ampicillin) × 100
[18] = Escherichia coli, ZOI of compound / ZOI of standard (gentamicin) × 100

| SMILES | ZOI (Salmonella typhi [1]; Salmonella typhi) | AI (Salmonella typhi [1]; [16]) | L. lipase (serum enzyme activity) [3] | mean L. lipase activity [3] | HDL [4] | LDL [4] | Total Chol. [4] | Trig [4] | ALP [5] | ALT [5] | AST [5] | MIC (Aspergillus terreus [7]) | MIC (Bacillus subtilis [9]) | MBC (Escherichia coli [10]) | MIC (Escherichia coli [10]) | ZOI (Bacillus subtilis [12]; Bacillus subtilis) | AI (Bacillus subtilis [12]; [17]) | ZOI (Escherichia coli [13]; Escherichia coli) | AI (Escherichia coli [13]; [18]) | ZOI (Aspergillus terreus [15]) | further results |
| --- | --- | --- | --- | --- | --- | --- | --- | --- | --- | --- | --- | --- | --- | --- | --- | --- | --- | --- | --- | --- | --- |
| O=C(O)COCCN1CCN(C(c2ccccc2)c2ccc(Cl)cc2)CC1 (racemic) [CETZ.2HCl, (RS)‐2‐[2‐[4‐[(4‐chlorophenyl)phenylmethyl]piperazine‐L‐yl]‐ethoxy]acetic acid, dihydrochloride, reference compound] | 7.7 ±0.58 mm | 37.2% | 104.88± 26.5 U/L and 104.88 U/L | 104.9 U L^−1 | 85.25 ± 6.23 mg/dL | 93.25 ± 8.15 mg/dL | 230.38 mg/dL | 80.5 ± 10.18 mg/dL | 90.5 ± 16.79 U L^−1 | 245.63 ± 43.99 U L^−1 | 345.5 ± 57.73 U L^−1 | 0.025 µg/mL and 0.025 ± 0.01 µg/mL | 0.05 µg/mL | 0.091 µg/mL | 0.075 ± 0.01 µg/mL | 12.1 ± 0.15 mm | 42.6% | 8.5 ±0.50 mm | 43.6% | 10.3 ±0.27 mm | MBC (Salmonella typhi [2]; Salmonella enterica, TYPHI): 0.037 ± 0.01 µg/mL; MIC (Aspergillus niger [6]): 0.025 µg/mL and 0.025 ± 0.01 µg/mL; MBC (Staphylococcus aureus [8]): 0.049 µg/mL and 0.049 ± 0.01 µg/mL; MIC (Staphylococcus aureus [8]): 0.025 µg/mL and 0.025 ± 0.02 µg/mL; ZOI (Staphylococcus aureus [11]): 9.4 ± 0.02 mm; AI (Staphylococcus aureus [11]): 41.4%; ZOI (Aspergillus niger [14]; Aspergillus niger): 12.5 ±0.36 mm; AI (Aspergillus terreus [15]): 58.9% |
| O.O.O=C([O-])COCCN1CCN(C(c2ccccc2)c2ccc(Cl)cc2)CC1.O=[N+]([O-])[O-].[Cu+2].c1cnc2c(c1)ccc1cccnc12 (centres unmarked) [complex (1), [Cu(CETZ)(Phen)(H2O)2(NO3)]] | 30.0 ^+ ^3 ±0.10 mm | 144.9% | 127.88 U/L | 127.9 U L^−1 | 80.75 ± 8.26 mg/dL | 60.5 ± 5.78 mg/dL | 138.88 ± 10.92 mg/dL | 77.25 ± 9.3 mg/dL | 88 ± 12.64 U L^−1 | 228.63 ± 50.57 U L^−1 | 274.63 ± 36.40^NS U L^−1 | 0.075 µg/mL and 0.075 ± 0.005 µg/mL | 0.050 ± 0.007 µg/mL | 0.15 0.02 µg mL^−1 | 0.1 ± 0.006 µg/mL | 23.3 ^+ ^2 ± 0.66 mm | 82.04% | 32.5 ^+ ^3 ±0.30 mm | 166.6% | 10.5^NS ±1.06 mm | AI (Salmonella typhi [1]; Table 9, Salmonella typhi, this work): 59.9; Salmonella typhi (inhibition zone) (Salmonella typhi [1]; Table 9, this work): 30.0 ^+ ^3 ± 0.10; MBC (Salmonella typhi [2]; Salmonella typhi): 0.081 ± 0.01 µg/mL; MIC (Salmonella typhi [2]; Salmonella typhi): 0.075 µg/mL and 0.075 ± 0.006 µg/mL; L. lipase (serum enzyme activity) ([3]; listed as Cu-CETZ Complex): 127.88±11.72 U/L; MIC (Aspergillus niger [6]): 0.050 µg/mL and 0.050 ± 0.02 µg/mL; MBC (Staphylococcus aureus [8]): 0.086 µg/mL and 0.086 ± 0.004 µg/mL; MIC (Staphylococcus aureus [8]): 0.075 µg/mL and 0.075 ± 0.03 µg/mL; ZOI (Staphylococcus aureus [11]): 17.3 ^+ ^2 ±0.33 mm; AI (Staphylococcus aureus [11]): 76.2%; Staphylococcus aureus (inhibition zone) (Staphylococcus aureus [11]; Table 9, this work): 17.3 ^+ ^2 ± 0.33; AI (Bacillus subtilis [12]; Table 9, Bacillus subtillis, this work): 55.3; Bacillus subtillis (inhibition zone) (Bacillus subtilis [12]; Table 9, this work): 23.3 ^+ ^2 ± 0.66; AI (Escherichia coli [13]; Table 9, Escherichia coli, this work): 113.3; Escherichia coli (inhibition zone) (Escherichia coli [13]; Table 9, this work): 32.5 ^+ ^3 ± 0.30; ZOI (Aspergillus niger [14]; Aspergillus niger): 13.1^NS ±0.38 mm; AI (Aspergillus niger [14]; Aspergillus niger, ZOI of compound / ZOI of standard (colitrimazole) × 100): 66.16%; AI (Aspergillus niger [14]; Table 9, Aspergillus niger, this work): 88.89; Aspergillus niger (inhibition zone) (Aspergillus niger [14]; Table 9, this work): 13.1^NS ± 0.38; AI (Aspergillus terreus [15]): 60.0% |
| CC(=O)[O-].O.O.O=C([O-])COCCN1CCN(C(c2ccccc2)c2ccc(Cl)cc2)CC1.[Cd+2].c1cnc2c(c1)ccc1cccnc12 (centres unmarked) [complex (3), [Cd(CETZ)(Phen)(H2O)2(CH3COO)]] | 19.5 ^+ ^2 ±0.85 mm | 94.2% | 52.38 U/L | 52.4 U L^−1 | 44.63 ± 12.92 mg/dL | 89.25 ± 9.45 mg/dL | 283.75 mg/dL | 188.75 mg/dL | 123.63 ± 11.45 U L^−1 | 283.75 ± 23.49 U L^−1 | 374.88 ± 36.33 U L^−1 | 0.100 µg/mL and 0.1 ± 0.01 µg/mL | 0.075 ± 0.006 µg/mL | 0.23 ± 0.053 µg/mL | 0.1 ± 0.02 µg/mL | 32.0 ^+ ^3 ±0.68 mm | 112.68% | 28.5 ^+ ^2 ±0.83 mm | 146.1% | 14.7 ^+ ^1 ±0.55 mm | MBC (Salmonella typhi [2]; Salmonella typhi): 0.066 ± 0.014 µg/mL; MIC (Salmonella typhi [2]; Salmonella typhi): 0.050 µg/mL and 0.050 ± 0.01 µg/mL; L. lipase (serum enzyme activity) ([3]; listed as Cd-CETZ Complex): 52.38±9.6 U/L; AI (Aspergillus terreus [15]): 84.0% |

Reference: PMC12081029, “Structural, Spectroscopic, and Docking Analysis of N,O‐Donor Ligand Metal Complex Nanoparticles With Hypolipidemic Effects via Lipoprotein Lipase Activation in High‐Fat Diet Mice” (Chemistry & Biodiversity, 2024)
